What is called IC90 is the concentration needed for an effect of 90%.

Drawing on PubChem BioAssay AID2842 (Southern Research Institute, 2010), this text covers IC90 for 100 molecules.

The assay concerns M. tuberculosis H37Rv growth inhibition. The experiment in a line: Mycobacterium tuberculosis H37Rv growth inhibition, putative kinase inhibitor library, confirmatory dose response (AID 2842).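 Also: bacteria incubated one week before Alamar blue readout.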

Converted amounts (≈) assume the structure as drawn. Bounds are passed on as bounds.

Consider `COc1cccc2sc(N(CCCn3ccnc3)C(=O)Cc3ccc(F)cc3)nc12`, for which the IC90 is 3.48 µg/mL (≈ 8.2 µM). Under `O=C(Nc1ccc(Cl)c(Cl)c1)NC1CC(=O)N(c2cccc(F)c2)C1` (stereo not given) stands 6.41 µg/mL (≈ 16.8 µM); under `O=C(Nc1cccc(-c2ccc3nnc(-c4cccnc4)n3n2)c1)c1ccc(F)cc1F`, 27.6 µg/mL (≈ 64.5 µM); under `CC(C)(C)c1ccc(C(=O)Nc2nnc(-c3ccc(S(C)(=O)=O)cc3)o2)cc1`, 24.6 µg/mL (≈ 61.7 µM). The same measure for `C=CCN(CC=C)S(=O)(=O)c1ccc(C(=O)Nc2nnc(-c3cc(Cl)ccc3Cl)o2)cc1`: 12.8 µg/mL (≈ 25.9 µM).

As to `COc1cccc(-c2nnc(NC(=O)C(C)C)o2)c1`, the IC90 is 32.7 µg/mL (≈ 125 µM). Under `O=C(Nc1nnc(-c2ccc(Br)cc2)o1)c1ccc(Cl)s1` stands 1.87 µg/mL (≈ 4.86 µM). The same measure for `O=C(Nc1nnc(C2=COCCO2)o1)c1cc(Cl)cc(Cl)c1`: 53.7 µg/mL (≈ 157 µM); for `Cc1ccc2sc(NNC(=O)c3cccs3)nc2c1C`: 23.2 µg/mL (≈ 76.4 µM). Under `c1ccc(-c2csc(Nc3nc4cc5c(cc4s3)OCO5)n2)nc1` stands 1.79 µg/mL (≈ 5.05 µM); under `Cc1cn2c3c(=O)[nH]c(=O)n(C)c3nc2n1CCCN(C)Cc1ccccc1`, 2.62 µg/mL (≈ 6.89 µM). For `O=C(CN1C(=O)CCC1=O)Nc1nnc(-c2ccc3c(c2)CCCC3)o1`, the concentration for an effect of 90% (IC90) is 27.6 µg/mL (≈ 78 µM). On to `CCOC(=O)c1sc(NC(=O)CCSc2ccccc2)cc1C`, for which the IC90 was 0.82 µg/mL (≈ 2.35 µM). Under `O=C1CN(C(=O)c2cccc3ccccc23)C(c2ccccc2)c2cc(Br)ccc2N1` (stereo not given) stands 8.15 µg/mL (≈ 17.3 µM); under `Cc1ccc(-c2nnc(NC(=O)C(C)C)o2)c(C)c1`, 8.43 µg/mL (≈ 32.5 µM). In the case of `Cc1ccc(-c2nnc(NC(=O)c3ccc(S(=O)(=O)N(C)C)cc3)o2)c(C)c1`, the IC90 was 41.1 µg/mL (≈ 103 µM). In the case of `Cc1ccc(-c2nnc(NC(=O)c3ccc(Br)cc3)o2)c(C)c1`, the 90% effect concentration (IC90) is 52.2 µg/mL (≈ 140 µM).

Consider `O=C(CCc1ccccc1)Nc1nnc(-c2ccc(Cl)s2)o1`, for which the IC90 is 2.27 µg/mL (≈ 6.8 µM). As to `C=CCOC(=O)COc1ccc2cc(-c3ccc(OC)cc3)c(=O)oc2c1`, the IC90 was 3.58 µg/mL (≈ 9.77 µM). Under `CCOC(=O)c1cnc2ccc(OCC)cc2c1Nc1ccccc1C` stands 8.82 µg/mL (≈ 25.2 µM); under `CC1(C)Cc2c(sc(NC(=O)c3ccc(Cc4ccccc4)cc3)c2C(N)=O)C(C)(C)N1`, 10.4 µg/mL (≈ 23.3 µM); under `Cc1ccc(C(=O)Nc2nnc(-c3ccncc3)o2)cc1`, 13.4 µg/mL (≈ 47.7 µM). The same measure for `O=C(Nc1nnc(-c2ccc(Br)cc2)o1)c1sc2ccccc2c1Cl`: 6.7 µg/mL (≈ 15.4 µM); for `Oc1ccc2ccccc2c1N=Nc1nn[nH]n1`: less than 0.2 µg/mL; for `COc1ccc(-c2nnc(NC(=O)c3ccccc3Br)o2)cc1`: 82.2 µg/mL (≈ 220 µM).

For `O=C(OCn1nnc2ccccc2c1=O)C(c1ccccc1)c1ccccc1`, the IC90 is 8.87 µg/mL (≈ 23.9 µM). Under `CC(=O)Nc1ccc2nc(Nc3nc4ccc(C(C)C)cc4s3)sc2c1` stands 2 µg/mL (≈ 5.23 µM). Under `CCOc1ccc(NC(=O)c2c(Cl)ccc(Cl)c2Cl)cc1` stands 11.7 µg/mL (≈ 34 µM); under `OCCOCCNc1nc(Nc2cccc(F)c2)nc2c1cnn2-c1ccccc1`, 4.91 µg/mL (≈ 12 µM); under `CSc1nc2ccc3nc(NC(=O)c4cc5ccccc5oc4=O)sc3c2s1`, 26.1 µg/mL (≈ 61.3 µM). Under `COc1ccc(C)c2sc(N3CCc4ccccc4C3)nc12` stands 11.1 µg/mL (≈ 35.6 µM). Regarding `CCS(=O)(=O)c1ccc(C(=O)Nc2nnc(-c3ccc(Br)cc3)o2)cc1`, the IC90 is 24.6 µg/mL (≈ 56.4 µM). With `O=C(CSc1nnc(-c2ccncc2)o1)N1CCCCC1`, the concentration for an effect of 90% (IC90) was 14.2 µg/mL (≈ 46.7 µM).

Regarding `O=C(OC1CCCCC1)c1cc2ccccc2oc1=O`, the 90% effect concentration (IC90) is 49 µg/mL (≈ 180 µM). Under `CCOc1cc(-c2nnc(NC(=O)C3=COCCO3)o2)cc(OCC)c1OCC` stands 7 µg/mL (≈ 17.3 µM); under `CCOC(=O)COc1ccc2c(C)c(-c3ccc(OC)c(OC)c3)c(=O)oc2c1`, 2.34 µg/mL (≈ 5.87 µM); under `Cc1ccc(C)c(-c2nnc(NC(=O)CCc3ccccc3)o2)c1`, 10.9 µg/mL (≈ 33.8 µM). `Cc1cc(NC(=O)NCCCSc2nc3ccccc3o2)no1`: the IC90 is 29.1 µg/mL (≈ 87.5 µM).

For `O=C(Nc1nnc(-c2ccc3c(c2)CCCC3)o1)C1=COCCO1`, the IC90 is 9.82 µg/mL (≈ 30 µM).

Regarding `N#C/C(=C\c1ccc([N+](=O)[O-])cc1)c1nc2ccccc2[nH]1`, the IC90 is 6.12 µg/mL (≈ 21.1 µM). The same measure for `O=C(NCC(c1cccs1)N1CCc2ccccc2C1)c1ccc2c(c1)OCO2` (stereo not given): 23.9 µg/mL (≈ 58.7 µM). Under `Cc1cc(C)c2nc(NNC(=O)c3ccccc3F)sc2c1` stands 3.08 µg/mL (≈ 9.77 µM); under `COc1ccc(-c2nnc3c4cc5c(cc4n(Cc4cccc(OC)c4)cc2-3)OCCO5)cc1`, 5.28 µg/mL (≈ 11.6 µM).

Take `Cc1ccc(-n2ncc3c(NC(C)C)ncnc32)cc1Cl`: the concentration for an effect of 90% (IC90) is 64 µg/mL (≈ 212 µM). The same measure for `O=C(Nc1nnc(-c2ccco2)o1)C1=COCCO1`: 50.9 µg/mL (≈ 193 µM); for `O=C(Nc1nnc(-c2ccncc2)o1)c1ccc(F)cc1`: 3.23 µg/mL (≈ 11.4 µM). Under `COc1ccc(C(=O)Nc2nc3c(s2)CCCC3)cc1OC` stands 22.8 µg/mL (≈ 71.7 µM); under `O=C(c1ccc(NC2=C(Cl)C(=O)N(Cc3ccccc3)C2=O)cc1)N1CCCCCC1`, 11.2 µg/mL (≈ 25.5 µM); under `CC(=O)N1CCc2c(sc(NC(=O)c3cccc(C)c3)c2C(N)=O)C1`, 17.1 µg/mL (≈ 47.8 µM).

In the case of `Cc1ccc(-c2nnc(NC(=O)C3CCCCC3)o2)c(C)c1`, the IC90 was 8.75 µg/mL (≈ 29.2 µM). Take `O=C(/C=C/c1ccccc1)Nc1nnc(-c2ccc3c(c2)CCCC3)o1`: the IC90 is 1.67 µg/mL (≈ 4.83 µM). Under `O=C(Nc1nnc(-c2cc(Cl)ccc2Cl)o1)c1ccccc1F` stands 0.43 µg/mL (≈ 1.22 µM); under `Cc1cccc(N2CCN(C(=O)CCCCCn3c(=O)[nH]c4ccsc4c3=O)CC2C)c1` (stereo not given), 19.5 µg/mL (≈ 42.9 µM). Under `O=c1[nH]c(N/N=C/c2cccs2)nnc1-c1ccccc1` stands 21.6 µg/mL (≈ 72.5 µM). The same measure for `COc1cc(-c2nnc(NC(=O)C(C)(C)C)o2)cc(OC)c1OC`: 14.5 µg/mL (≈ 43.1 µM); for `O=C(NNc1nc2ccc(Cl)cc2s1)c1cc(-c2cccs2)nc2ccccc12`: 30.9 µg/mL (≈ 70.8 µM). Consider `O=C(COc1ccc(Cl)cc1)N1CCN(c2ncnc3c2nnn3Cc2ccccc2)CC1`, for which the IC90 was 6.75 µg/mL (≈ 14.5 µM). Under `O=C(CCOc1ccccc1)Nc1nnc(-c2ccc3c(c2)OCCO3)o1` stands 95.9 µg/mL (≈ 261 µM). The same measure for `O=C(Nc1nnc(-c2cc(Cl)ccc2Cl)o1)c1ccc(S(=O)(=O)N2CCOCC2)cc1`: 3.86 µg/mL (≈ 7.99 µM); for `Cc1cc(NCCCn2ccnc2)n2ncc(-c3ccccc3)c2n1`: 3.12 µg/mL (≈ 9.39 µM). Under `CN1CCc2c(sc(NC(=O)c3ccc4ccccc4c3)c2C(N)=O)C1` stands 11.9 µg/mL (≈ 32.5 µM); under `COc1ccccc1C(=O)Nc1nnc(-c2ccc(Cl)cc2)o1`, 3.86 µg/mL (≈ 11.7 µM); under `COc1cc(OC)cc(C(=O)N(CCCn2ccnc2)c2nc3cc(C)cc(C)c3s2)c1`, 6.63 µg/mL (≈ 14.7 µM). Turning to `O=C(/C=C/c1ccccc1)Nc1nc2c(s1)COc1ccccc1-2`, the IC90 is 6.8 µg/mL (≈ 20.3 µM).

On to `COc1ccc(C(=O)Nc2nnc(C3=COCCO3)o2)cc1`, for which the IC90 was 3.3 µg/mL (≈ 10.9 µM). The same measure for `COC(=O)C(C)Oc1ccc2cc(-c3ccc(OC)c(OC)c3)c(=O)oc2c1` (stereo not given): 6.7 µg/mL (≈ 17.4 µM); for `COC(=O)COc1cccc(/C=C2\Oc3cc(OC)ccc3C2=O)c1`: 17.3 µg/mL (≈ 50.7 µM); for `CCC(=O)Nc1nnc(-c2ccc(Br)cc2)o1`: 6.26 µg/mL (≈ 21.1 µM). Under `Cc1ccccc1C(=O)Nc1nnc(-c2ccc(F)cc2)o1` stands less than 0.2 µg/mL; under `COc1cccc(-c2csc(NC(=O)C3CCCCC3)n2)c1`, 19.8 µg/mL (≈ 62.6 µM). For the molecule `O=C(Nc1nnc(-c2ccc3c(c2)CCCC3)o1)c1ccc(F)cc1`, the IC90 was 21.6 µg/mL (≈ 64 µM). The same measure for `O=C1CC(c2nc3ccccc3n2Cc2ccccc2Cl)CN1c1ccccc1F` (stereo not given): 18.1 µg/mL (≈ 43.2 µM). Under `Cc1cc(Cl)cc2sc(N(CCCn3ccnc3)C(=O)c3cccs3)nc12` stands 1.05 µg/mL (≈ 2.52 µM); under `CC(=O)N1CCc2c(sc(NC(=O)c3cccs3)c2C(N)=O)C1`, 3.21 µg/mL (≈ 9.19 µM). In the case of `Cc1ccc(C)c(-c2nnc(NC(=O)c3ccccc3F)o2)c1`, the IC90 is less than 0.2 µg/mL. The same measure for `O=c1cnnc(N/N=C/c2c(O)ccc3ccccc23)[nH]1`: less than 0.2 µg/mL; for `CCOC(=O)N1CCc2c(sc(NC(=O)c3ccco3)c2-c2nc3ccccc3s2)C1`: 50.2 µg/mL (≈ 111 µM); for `COc1cc(C2C3=C(CC(C)(C)CC3=O)Nc3ncnn32)ccc1OCc1ccc(Cl)c(Cl)c1` (stereo not given): 6.77 µg/mL (≈ 13.6 µM). Under `Cc1ccc(-c2nnc(NC(=O)C3CC3)o2)c(C)c1` stands 1.47 µg/mL (≈ 5.71 µM); under `COc1ccc(-c2nnc(SCC(=O)Nc3cc(C)on3)o2)cc1`, 6.72 µg/mL (≈ 19.4 µM); under `Cc1ccc(C)c(-c2nnc(NC(=O)C3COc4ccccc4O3)o2)c1` (stereo not given), 1.18 µg/mL (≈ 3.36 µM). The same measure for `O=C(OCc1nc2ccccc2s1)c1ccc(C(=O)c2ccccc2)cc1`: 17.3 µg/mL (≈ 46.2 µM). On to `CC1CN(c2ncnc3c2c(-c2ccccc2)cn3-c2ccccc2)CC(C)O1` (stereo not given), for which the IC90 was 29.1 µg/mL (≈ 75.8 µM). Under `CCOc1ccc(C(=O)N2CC(=O)Nc3ccc(Br)cc3C2c2ccccc2)cc1` (stereo not given) stands 25.3 µg/mL (≈ 54.3 µM); under `CC(C)(C)c1ccc(C(=O)Nc2nnc(-c3ccccn3)o2)cc1`, 8.06 µg/mL (≈ 25 µM); under `O=C(/C=C/c1cccs1)N(CCCn1ccnc1)c1nc2ccccc2s1`, 1.43 µg/mL (≈ 3.62 µM). Take `Cc1ccc(-c2nnc(NC(=O)c3cc([N+](=O)[O-])ccc3Cl)o2)c(C)c1`: the IC90 is 1.57 µg/mL (≈ 4.21 µM).

As for `CCOc1cccc2sc(N(CCCn3ccnc3)C(=O)Cc3ccc(F)cc3)nc12`, the IC90 was 4.84 µg/mL (≈ 11 µM). Under `CC(C)N1CCc2c(sc(NC(=O)c3cc4c(ccc5ccccc54)oc3=O)c2C(N)=O)C1` stands 40.2 µg/mL (≈ 87 µM). The same measure for `O=C(Cc1ccccc1)N(CCCn1ccnc1)c1nc2c(F)cccc2s1`: 7.4 µg/mL (≈ 18.8 µM); for `COc1ccc(CC(=O)N2CCN=C2SCc2ccc(C(F)(F)F)cc2)cc1`: 23.9 µg/mL (≈ 58.4 µM).

As for `COC(=O)c1ccc(NC(=O)CSc2nc(-c3ccc(C)cc3)ns2)cc1`, the concentration for an effect of 90% (IC90) was 21.3 µg/mL (≈ 53.4 µM). Under `COc1ccc2c(c1)c(=O)c(C(=O)c1ccc(Cl)cc1)cn2Cc1ccccc1` stands 6.44 µg/mL (≈ 15.9 µM); under `O=C(Nc1nnc(-c2cc(Cl)ccc2Cl)o1)c1ccc(S(=O)(=O)N2CCCC2)cc1`, 25.6 µg/mL (≈ 54.8 µM). Under `O=C(Nc1nnc(-c2ccc(Br)cc2)o1)c1cc(Cl)ccc1Cl` stands 2.67 µg/mL (≈ 6.46 µM); under `CC(C)c1ccc(-c2csc(NC(=O)c3ccc4c(c3)OCCO4)n2)cc1`, 3.39 µg/mL (≈ 8.91 µM).

As to `CCOc1ccc2nc(Nc3nc4ccc(NC(C)=O)cc4s3)sc2c1`, the 90% effect concentration (IC90) is 7.84 µg/mL (≈ 20.4 µM). Under `Cc1cccc2sc(NNC(=O)c3cccc(F)c3)nc12` stands 9.09 µg/mL (≈ 30.2 µM); under `CCOC(=O)c1ccc2nc(Nc3nc4cc5c(cc4s3)OCO5)sc2c1`, 34.8 µg/mL (≈ 87.2 µM); under `Oc1ccc(Nc2nc(NCc3ccccc3)c3ccccc3n2)cc1`, 2.59 µg/mL (≈ 7.56 µM).
